# Where two headings read alike, the source gives them in different places.
# Assays:
# [1] = system: C. difficile 4118 (CD4118, ATCC BAA-1870, BI/NAP1/027); assay: MIC by broth microdilution against C. difficile 4118; assay type: cell-based, Clostridium difficile; details: Clostridioides difficile
# S. aureus RN4220 = assay: MIC against aerobic bacteria; assay type: cell-based; details: Staphylococcus aureus, RN4220; aerobic; read-out: MIC S. aureus RN4220
# C. sporogenes ATCC 15579 = assay: microbe, parasite or virus in culture; assay type: cell-based, Clostridium sporogenes; details: Clostridium sporogenes, ATCC15579, read-out: MIC C. sporogenes ATCC 15579
# [2] = system: B. thetaiotaomicron ATCC 29148; assay: microbe, parasite or virus in culture; assay type: cell-based; details: Bacteroides thetaiotaomicron, ATCC29148, read-out: MIC B. thetaiotaomicron ATCC 29148
# [3] = in vivo; cited from earlier work
# [4] = system: Clostridium difficile strain 4118; assay: Minimum bactericidal concentration (MBC), logarithmic- and stationary-phase cells; assay type: cell-based; details: Clostridioides difficile, 3-log reduction of inoculum
# Experimental: The MBClog values of the protonophores were determined to be 0.25-2 μg/mL (˜4 to 8-fold greater than their respective MIC values).
# Clostridium difficile strain 4118 was grown to OD600˜0.4-0.5 (logarithmic phase) or for 24 h (stationary phase), and thereafter added to two-fold serial dilutions of test compounds. Cultures were incubated for 20-24 h at 37° C., and then viable counts were enumerated on BHIS agar plates. […] MBC measurements were performed in duplicate.
# B. subtilis ATCC 6051 = assay: MIC against aerobic bacteria; assay type: cell-based, Bacillus subtilis; details: Bacillus subtilis, ATCC6051, read-out: MIC B. subtilis ATCC 6051
# S. epidermidis 1457 = assay: MIC against aerobic bacteria; assay type: cell-based; details: Staphylococcus epidermidis, 1457, read-out: MIC S. epidermidis 1457
# A. baumannii M2 = assay: MIC against aerobic bacteria; assay type: cell-based; details: Acinetobacter baumannii, M2, read-out: MIC A. baumannii M2
# P. aeruginosa PAO1 = assay: MIC against aerobic bacteria; assay type: cell-based, Pseudomonas aeruginosa; details: Pseudomonas aeruginosa, PAO1, read-out: MIC P. aeruginosa PAO1
# [5] = system: C. clostridioforme ATCC 25537; assay: MIC against anaerobic bacteria; assay type: cell-based, Clostridium clostridioforme; details: Clostridium, ATCC25537, read-out: MIC C. clostridioforme ATCC 25537
# P. distasonis ATCC 8503 = assay: MIC against anaerobic bacteria; assay type: cell-based, Parabacteroides distasonis; details: Parabacteroides distasonis, ATCC8503, read-out: MIC P. distasonis ATCC 8503
# P. nigrescens ATCC 33563 = assay: MIC against anaerobic bacteria; assay type: cell-based, Prevotella nigrescens; details: Prevotella nigrescens, ATCC33563, read-out: MIC P. nigrescens ATCC 33563
# sheep erythrocytes = assay: Hemolysis assay; details: tested at 32 μg/mL; 37° C., 1 h
# Experimental: Sheep red blood cells (Innovative Research, Novi, Mich., USA) were washed three times with PBS pH 7.4. A 3% cell suspension in PBS (100 μL) was added to test compounds in PBS (100 μL), and then incubated at 37° C. for 1 h. The plate was centrifuged at 500×g for 10 min, and supernatants (100 μL) were transferred to a clean 96-well plate. Hemolysis was determined by measuring absorbance at 540 nm, with 1% Triton X-100 as the positive control and 0.5% DMSO in PBS as the negative control. Hemolysis assays were performed in triplicate.
# liver carcinoma HepG2 = assay: In vitro cytotoxicity MTS assay, HepG2
# [6] = system: embryonic kidney HEK 293T/17; assay: In vitro cytotoxicity MTS assay, HEK 293T/17
compound,measurement,setting,value
"Cc1cc(C(C#N)c2ccc(Cl)cc2)c(Cl)cc1NC(=O)c1cc(I)cc(I)c1O (stereo not drawn) [Closantel, reference compound]",MIC,"[1]; ATCCBAA1870, Table 1, strain 4118, 20-24 h, 37° C., read-out: MIC C. difficile 4118",0.25 µg/mL
same,MIC,S. aureus RN4220,0.25 µg/mL
same,MIC,C. sporogenes ATCC 15579,1 µg/mL
same,MIC,[2],> 32 µg/mL
same,excreted unchanged in the feces,[3],≤ 90%
"O=C(Nc1ccc(Oc2ccc(Cl)cc2)c(Cl)c1)c1cc(I)cc(I)c1O [Rafoxanide, rafoxanide, reference compound]",MIC,[1]; ATCCBAA1870,0.13 µg/mL
same,MIC,"[1]; ATCCBAA1870, read-out: MIC C. difficile 4118",0.13 µg/mL
same,MBC,"[4]; logarithmic-phase cells of strain 4118, read-out: MBClog",0.5 µg/mL
same,MBC,"[4]; stationary-phase cells of strain 4118, read-out: MBCstat",1 µg/mL
same,MIC,B. subtilis ATCC 6051,≤ 0.03 µg/mL
same,MIC,S. aureus RN4220,0.25 µg/mL
same,MIC,S. epidermidis 1457,≤ 0.03 µg/mL
same,MIC,A. baumannii M2,> 32 µg/mL
same,MIC,P. aeruginosa PAO1,> 32 µg/mL
same,MIC,C. sporogenes ATCC 15579,1 µg/mL
same,MIC,[5],1 µg/mL
same,MIC,[2],> 32 µg/mL
same,MIC,P. distasonis ATCC 8503,8 µg/mL
same,MIC,P. nigrescens ATCC 33563,8 µg/mL
same,rupture of red blood cells (hemolysis),sheep erythrocytes,did not cause rupture of red blood cells
same,cell viability HepG2 (MTS),"liver carcinoma HepG2; 8 μg/mL, 16 h",no apparent effect on mammalian cell viability
same,in vitro toxicity toward HepG2 compared with niclosamide,liver carcinoma HepG2; relative to niclosamide,comparably lower in vitro toxicities
same,cell viability HEK 293T/17 (MTS),"[6]; 8 μg/mL, 16 h",no apparent effect on mammalian cell viability
same,in vitro toxicity toward HEK 293T/17 compared with niclosamide,[6]; relative to niclosamide,comparably lower in vitro toxicities

# — patent publication US10792272B2, “Methods for treatment of Clostridium difficile infections” (priority 2016, dated 2020)
